Reference: patent US20230089273A1, “METHODS FOR MATURING AN ARTERIOVENOUS FISTULA” (ALUCENT BIOMEDICAL, INC., priority 2020, published 2023)

Assays:
[1] = tested on: Ki-67; test: Immunohistochemistry of the AVF: Ki-67; type: in vivo, rat; details: entire AVF, 4 weeks
Source text: (§1) Based on the results from the morphometric analysis in Example 1, the expression level of several molecular targets associated with AVF maturation failure (i.e., MMP2-MMP-9, Ki-67, and IL6) in the AVF vessels at the 4-week time point were selected for further investigation.
(§2) But excessive fibrosis of the vessel walls due to local inflammation as well as the circumferential arrangement of newly synthesized collagen fibers has shown a positive association with AVF non-maturation (possibly due to decreasing the distensibility of the veins as they go through the arterialization process). MMP-9 is an inflammatory marker, and although MM-2 is usually not considered an inflammatory marker, both metalloproteinases have nearly identical ECM substrates and are important in vascular remodeling. […] Ki-67 is a marker of cell proliferation, which allows assessing the proliferation of vascular wall cells during the AVF development process.

[2] = tested on: collagen fibers in AVF medial layer; test: Multiphoton / SHG imaging of collagen fibers in AVF; type: in vivo, rat
Description: Second harmonic generation (SHG) imaging was performed on 5 μm thick formalin-fixed paraffin embedded (FFPE) sections using Leica SP8 Dive with spectral tunable detection. Collagen fiber orientation in the medial layer was analyzed in relationship to the lumen. Each sample was divided into 4 quadrants and the medial layer was examined in each quadrant; the area of examination for each quadrant was 25 μm^2. The same images were used for other collagen morphology using the MIPAR image software analysis.

[3] = tested on: MMP-2; test: Immunohistochemistry of the AVF: MMP-2; type: in vivo, rat; details: 4 weeks
Source text: as §1, §2

[4] = tested on: Femoral AVFs in young Wistar male rats; test: Rat femoral AVF model, histology and morphometry (VVG); type: in vivo
Description: (§3) Femoral AVFs were created in young Wistar male rats by connecting the femoral artery (side) and femoral vein (end) in the same limb. FIGS. 1A-B show the surgical procedure. Immediately after the blood flow was restored and dilatation of the femoral vein occurred, a 10 μl -drop of a composition comprising 2 mg/ml Compound of Formula (I) in PBS was placed at the AVF perivascularly and incubated for 5 minutes, to allow the Compound of Formula (I) to diffuse into the vascular wall. The Compound of Formula (I) was activated by a 1 minute illumination by 450 nm light. A control group of young Wistar male rats received a 10 μl -drop of phosphate buffered saline and the same light activation. The rats' skin was closed immediately after light activation. FIG. 1C is a photograph of the incubation with NVS, applied perivascularly on the anastomosis to allow the compound to diffuse into the vascular tissue. FIG. 1D is a photograph of the small molecule treated area being exposed to 1 minute of illumination with a 450 -nm light source. FIG. 1E depicts fluorescence images after following light activation, 2 animals were sacrificed and their vessels observed on a fluorescence microscope at 450 nm excitation for NVS.
Rats were euthanized 1 week (early time point, 4 per group) and 4 weeks (later time point, 10 per group) post-AVF creation for histology and morphometry. Verhoeff-Van Gieson (VVG)-stained thin cross-sections were used to measure the area enclosed by internal elastic lamina (IEL), the area of open lumen, and the area of neointimal hyperplasia (NH) by Image J software. Percent open lumen area=open lumen area/IEL-enclosed area×100%. These analyses were done at three locations: the entire AVF, the AVF venous limb, and the AVF arterial limb.
An unpaired, two-tailed t-test was used to determine the statistical significance between the two treatment groups (no-NVS (i.e., control) vs. NVS (treatment with Compound of Formula (I))) in each of the data sets, with α=0.05.

[5] = tested on: HUVECs; test: Cell death (apoptosis) assay, R&D system kit, HUVEC; type: cell-based; details: 0.25, 2.5, 25 μg/ml, 5 min, 450 nm light 1 min, D0-D3, FIG. 12A
Description: (§4) Cell death assays used the cell death detection R&D system kit to detect cell death via apoptosis. Cell density was 1×10^5 per well in a 96-well plate for R&D system kit. HUVECs and HASMCs were treated with NVS in different concentrations (0, 0.25, 2.5, and 25 μg/ml) in serum free medium for 5 minutes in the incubator. After removing NVS, cells were washed with serum free medium once, and the plate was refilled with 200 μl serum free medium in each well. Cells were treated using 450 nm light for 1 minute at room temperature, and then serum free medium was removed and each well was refilled with 200 μl of medium supplemented with 10% serum. At 0, 1, 2, and 3 days post-treatment (D0, D1, D2, and D3), cell death assay was performed according to the manufacturer's protocol. Positive controls were cells incubated with hypertonic buffer (10 mM Tris PH 7.4, 400 mM NaCl, 10 mM MgCl2) at 37° C. for 2 hours.

[6] = tested on: HASMCs; test: Cell death (apoptosis) assay, R&D system kit, HASMC; type: cell-based; details: 0.25, 2.5, 25 μg/ml, 5 min, 450 nm light 1 min, D0-D3, FIG. 12B
Description: as §4

[7] = tested on: native blood vessels, anastomosis area; test: Fluorescence imaging of vessels after NVS and laser treatment; type: in vivo, rat; details: vessels harvested immediately after NVS and laser treatment, FIG. 1E
Description: as §3, with “FIGS. 1C-E show photographs of the surgical procedure described in Example 1. (C) AVF surgery area was incubated with NVS solution for 5 min; (D) NVS was activated by laser at 450 nm for 1 min; (E) Fluorescent images of native blood vessels that are harvested immediately after the NVS and laser treatment. […] Femoral” for “Femoral”, “FIG. 1D is a photograph of the small molecule treated area being exposed to 1 minute of illumination with a 450 -nm light source.” left out

[8] = tested on: MMP-9; test: Immunohistochemistry of the AVF: MMP-9; type: in vivo, rat; details: 4 weeks
Source text: as §1, §2

[9] = tested on: IL-6; test: Immunohistochemistry of the AVF: IL-6; type: in vivo, rat; details: 4 weeks
Source text: as §1, §2

[10] = week 4, trend, not statistically different

Compound: NCCOCCOCCNc1ccc2c3c(cccc13)C(=O)N(CCOCCOCCN1C(=O)c3cccc4c(NCCOCCOCCN)ccc(c34)C1=O)C2=O [NVS, 2,2′-((ethane-1,2-diylbis(oxy))bis(ethane-2,1-diyl))bis(6-((2-(2-(2-aminoethoxy)ethoxy)ethyl)amino)-1H-benzo[de]isoquinoline-1,3(2H)-dione)]
- Ki-67 expression level vs PBS group [1]: similar
- analyzed regions exhibiting favorable collagen orientation for AVF maturation ([2]; AVFs at week 4, not statistically significant vs PBS (25%)): 58%
- collagen shape features (roundness, roughness, eccentricity) vs PBS treated samples [2, 10]: more defined shape features
- overall collagen area vs PBS treated samples [2, 10]: less overall collagen area
- MMP-2 expression level vs PBS group ([3]; arterial limb): trending lower
- MMP-2 expression level vs PBS group ([3]; entire AVF): trending lower
- MMP-2 area stained positive, fold lower than PBS group ([3]; venous limb, p=0.015, FIG. 8C): 1.8 fold
- AVF venous limb % open lumen area, fold larger than control ([4]; 4 weeks, p=0.009, FIG. 6): 1.98 fold
- AVF venous limb open lumen area, fold larger than control ([4]; 4 weeks, p=0.014, FIG. 6): 4.18 fold
- entire AVF % open lumen area, fold larger than control ([4]; 4 weeks, p=0.052, FIG. 5): 1.49 fold
- entire AVF open lumen area, fold larger than control ([4]; 4 weeks, p=0.062, FIG. 5): 2.25 fold
- tolerability of treatment ([4]; 10 μl drop of 2 mg/ml in PBS perivascular, 5 min, 450 nm light 1 min): tolerated the treatment well
- venous diameter vs PBS control ([4]; by 4 weeks after AVF creation surgery): enlarged venous diameter
- all four morphometric parameters (IEL-enclosed area, neointimal lesion area, open lumen area, % area of open lumen) vs PBS ([4]; entire AVF, 1 week): similar
- NH (neointimal hyperplasia) area vs control ([4]; regardless of the locations): without significantly affecting
- AVF open lumen area, effect of treatment ([4]; summary statement): significantly increased
- cell death via apoptosis [5]: minimal cell death
- cell death via apoptosis [6]: minimal cell death
- penetration into vascular tissue (green fluorescence) [7]: penetration throughout the anastomosis area
- MMP-9 % area stained positive, fold lower than PBS group ([8]; arterial limb, p=0.036, FIG. 9D): 2.4 fold
- MMP-9 expression level vs PBS group ([8]; entire AVF): trending lower
- MMP-9 % area stained positive, fold lower than PBS group ([8]; venous limb, p=0.019, FIG. 9D): 1.8 fold
- IL-6 mean gray value, fold lower than PBS group ([9]; arterial limb, p=0.015, FIG. 10C): 1.6 fold
- IL-6 mean gray value, fold lower than PBS group ([9]; entire AVF, p=0.027, FIG. 10C): 1.4 fold
- IL-6 expression level vs PBS group ([9]; venous limb): trending lower
